For data set [1], the system named is Aspergillus fumigatus. The data set is described as follows: Antifungal activity against Aspergillus fumigatus assessed as inhibition of fungal growth incubated for 20 hrs. The format is functional.
Data set [2] concerns Candida albicans. Nature of the data set: Antifungal activity against Candida albicans assessed as inhibition of fungal growth incubated for 20 hrs. The format is functional.
Data set [3] in a line: Metabolic stability in human plasma assessed as half life by measuring TAK-456 metabolite formation preinubated for 5 mins followed by compound addition measured at 5 to 120 mins by HPLC analysis. It is filed as ADME, cell-free. To be noted: time 5-120 min.
Data set [4] can be described thus: Metabolic stability in ICR mouse plasma assessed as half life by measuring TAK-456 metabolite formation preincubated for 5 mins followed by compound addition measured at 5 to 120 mins by HPLC analysis. Conditions: time 5-120 min. The format is ADME, cell-free.
Data set [5] relates to Candida albicans. The data set is described as follows: In vivo antifungal activity against Candida albicans infected in CDF1 mouse treated po or iv immediately after infection measured on day 7. It is filed as functional. To be noted: 168 h, time 7 day.
The nature of data set [6]: Metabolic stability in Sprague-Dawley rat plasma assessed as half life by measuring TAK-456 metabolite formation preincubated for 5 mins followed by compound addition measured at 5 to 120 mins by HPLC analysis. It is filed as ADME, cell-free. Conditions: time 5-120 min.
Data set [7] concerns Candida albicans. The data set is described as follows: In vivo antifungal activity against Candida albicans infected in CDF1 mouse treated po or iv 2 hrs after infection twice daily for 2 days measured on day 10. The format is functional. To be noted: 240 h, time 10 day.
Data set [8] has as its system Candida albicans. Nature of the data set: Antifungal activity against Candida albicans. The format is functional.
For data set [9], the system named is Candida albicans. Nature of the data set: Antifungal activity against FCZ-resistant Candida albicans 100. It is filed as functional.
The subject of data set [10] is Candida albicans. Nature of the data set: Antifungal activity against FCZ-resistant Candida albicans 103. It is filed as functional.
Data set [11] has as its system Aspergillus fumigatus. The data set is described as follows: Antifungal activity against Aspergillus fumigatus. The format is functional.
In data set [12] the test system is Nannizzia gypsea. The data set is described as follows: Potency index, ratio of MIC80 for FCZ to ratio of MIC80 for test compound against antifungal activity in Microsporum gypseum. It is filed as functional.
Data set [13] relates to Candida parapsilosis. The data set is described as follows: Antifungal activity against Candida parapsilosis. It is filed as functional. Conditions: Lodderomyces parapsilosis.
Data set [14] concerns Nannizzia gypsea. Nature of the data set: Antifungal activity against Microsporum gypseum. It is filed as functional.
Data set [15] is described as follows: Prodrug conversion in rat plasma assessed as half life. It is filed as ADME, cell-free.
In data set [16] the test system is Candida albicans. Nature of the data set: In vivo antifungal activity against Candida albicans infected in CDF1 mouse treated po 4 hrs after injection twice daily for 2 days measured on day 10. The format is functional. Conditions: 48 h, time 2 day.
For data set [17], the system named is Candida albicans. Nature of the data set: Antifungal activity against Candida albicans TIMM1756 by agar-dilution assay. It is filed as functional.
In data set [18] the test system is Cryptococcus neoformans. Nature of the data set: Antifungal activity against Cryptococcus neoformans TIMM1855 assessed as inhibition of fungal growth incubated for 68 hrs. It is filed as functional.
Data set [19] deals with Aspergillus fumigatus. The data set is described as follows: Antifungal activity against Aspergillus fumigatus IFO6344 assessed as inhibition of fungal growth incubated for 20 hrs. It is filed as functional.
Data set [20] deals with Aspergillus fumigatus. Nature of the data set: In vivo antifungal activity against Aspergillus fumigatus infected in CDF1 mouse treated po 4 hrs after injection twice daily for 2 days measured on day 10. It is filed as functional. Conditions: 48 h, time 2 day.
Data set [21] deals with Candida albicans. The data set is described as follows: Antifungal activity against Candida albicans TIMM1850 assessed as inhibition of fungal growth incubated for 20 hrs. The format is functional.
Data set [22] has as its system Cryptococcus neoformans. The data set is described as follows: Antifungal activity against Cryptococcus neoformans TIMM1740 by agar-dilution assay. The format is functional.
In data set [23] the test system is Aspergillus fumigatus. The data set is described as follows: Antifungal activity against Aspergillus fumigatus 437 by agar-dilution assay. The format is functional.
The subject of data set [24] is Aspergillus fumigatus. The data set is described as follows: Antifungal activity against Aspergillus fumigatus TIMM1728 assessed as inhibition of fungal growth incubated for 20 hrs. The format is functional.
Data set [25] has as its system Candida albicans. Nature of the data set: Antifungal activity against Candida albicans TIMM1756 assessed as inhibition of fungal growth incubated for 20 hrs. The format is functional.
The subject of data set [26] is Cryptococcus neoformans. The data set is described as follows: Antifungal activity against Cryptococcus neoformans TIMM1740 assessed as inhibition of fungal growth incubated for 68 hrs. The format is functional.
Data set [27] has as its system Cryptococcus neoformans. Nature of the data set: Antifungal activity against Cryptococcus neoformans TIMM1855 by agar-dilution assay. Conditions: TIMM 1855. The format is functional.
Data set [28] deals with Candida albicans. Nature of the data set: Antifungal activity against Candida albicans TIMM1850 by agar-dilution assay. It is filed as functional.
In data set [29] the test system is Aspergillus fumigatus. The data set is described as follows: Antifungal activity against Aspergillus fumigatus TIMM1728 by agar-dilution assay. It is filed as functional.
In data set [30] the test system is Aspergillus fumigatus. Nature of the data set: Antifungal activity against Aspergillus fumigatus IFO6344 by agar-dilution assay. The format is functional.
Data set [31] has as its system Candida albicans. Nature of the data set: In vivo antifungal activity against Candida albicans ATCC48130 infected in Fisher rat administered po. It is filed as functional.
In data set [32] the test system is Candida albicans. Nature of the data set: In vivo antifungal activity against Candida albicans ATCC48130 infected in Fisher rat administered IV. The format is functional.
Data set [33] deals with Aspergillus fumigatus. Nature of the data set: In vivo antifungal activity against Aspergillus fumigatus infected in Fisher rat administered IV. It is filed as functional.
Data set [34] concerns Aspergillus fumigatus. The data set is described as follows: In vivo antifungal activity against Aspergillus fumigatus infected in Fisher rat administered po. The format is functional.
Data set [35] in a line: Plasma protein binding in human. To be noted: route po, read-out: PPB (converted). The format is ADME, cell-free.
Data set [36] is described as follows: Oral bioavailability in monkey relative to control. It is filed as ADME, organism-based, Macaca mulatta. To be noted: rhesus monkey, in vivo.
The target of data set [37] is Cytochrome P450 3A4 (Homo sapiens, UniProt P08684). Nature of the data set: Inhibition of CYP3A4 in human hepatocyte microsomes using testosterone as substrate by LC-MS/MS analysis. The format is ADME, Microsome.
Chain of Cytochrome P450 3A4 (P08684 whole entry): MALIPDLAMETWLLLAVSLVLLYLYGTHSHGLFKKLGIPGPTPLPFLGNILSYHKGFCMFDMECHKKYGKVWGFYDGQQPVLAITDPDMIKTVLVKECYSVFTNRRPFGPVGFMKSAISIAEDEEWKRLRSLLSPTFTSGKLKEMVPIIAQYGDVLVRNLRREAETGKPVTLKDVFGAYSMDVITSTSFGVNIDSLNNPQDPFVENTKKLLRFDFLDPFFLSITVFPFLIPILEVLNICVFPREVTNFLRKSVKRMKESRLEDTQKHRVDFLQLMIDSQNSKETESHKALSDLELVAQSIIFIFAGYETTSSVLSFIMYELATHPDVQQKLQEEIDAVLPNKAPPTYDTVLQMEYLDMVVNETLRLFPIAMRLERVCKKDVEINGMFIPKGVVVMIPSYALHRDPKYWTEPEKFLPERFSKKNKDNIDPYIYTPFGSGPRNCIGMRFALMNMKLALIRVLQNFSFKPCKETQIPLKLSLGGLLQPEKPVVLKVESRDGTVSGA
A short description of data set [38]: Water solubility of the compound at pH 7.4. The format is physicochemical. To be noted: buffer.

Converted amounts (≈) assume the structure as drawn.

`C[C@@H](N1Cc2cc(Br)sc2C1=O)[C@](O)(Cn1cncn1)c1ccc(F)cc1F`: the MIC (in general, the lowest concentration found to suppress growth) in data set [1] came to 0.25 µg/mL (≈ 0.533 µM).

Take `CC(=O)OC[n+]1cnn(C[C@](O)(c2ccc(F)cc2F)[C@@H](C)N2CCN(c3ccc(-n4cnnn4)cc3)C2=O)c1.[Cl-]`: in data set [2], the MIC is 0.016 µg/mL. Moreover, the t1/2 in data set [3], in data set [4] and in data set [6] was 5 min throughout. Besides, the ED50 (commonly the dose that gives a 50% effect, or the effect in half of the subjects) in data set [5] was 0.62 mg/kg; in data set [7], 4.49 mg/kg.

As for `C[C@@H](OCc1cc(-c2ccc(F)cc2)no1)[C@](O)(Cn1cncn1)c1ccc(F)cc1F`, the MIC80 (as a rule, an inhibitory concentration at the 80% level, which refers to growth in some studies and to a panel of isolates in others) in data set [8] was 0.0313 µg/mL (≈ 0.0704 µM); in data set [9] it was 8 µg/mL (≈ 18 µM); in data set [10], 8 µg/mL (≈ 18 µM); in [11] it was 4 µg/mL (≈ 9 µM); in data set [13], 0.0313 µg/mL (≈ 0.0704 µM); in data set [14] it was 0.5 µg/mL (≈ 1.13 µM). Besides, the Ratio in [12] worked out at 64.

`CC(=O)OCc1ccccc1N(C)C(=O)OC[n+]1cnn(C[C@](O)(c2ccc(F)cc2F)[C@@H](C)c2nc(-c3ccc(C#N)cc3)cs2)c1.[Cl-]`: the t1/2 in data set [15] worked out at 13 min.

`C[C@@H](N1CCN(c2ccc(-n3ncnn3)cc2)C1=O)[C@](O)(Cn1cncn1)c1ccc(F)cc1F`: the values for the ED50 in [16] and in [20] were 0.18 mg/kg and 4 mg/kg, respectively. Moreover, the MIC in data set [17] was 0.002 µg/mL (≈ 0.00415 µM); in [18] it was 0.016 µg/mL (≈ 0.0332 µM); in data set [19] it was 0.25 µg/mL (≈ 0.519 µM); in data set [21], no more than 0.001 µg/mL; in [22] it was 0.03 µg/mL (≈ 0.0623 µM); in data set [23], 0.03 µg/mL (≈ 0.0623 µM). The MIC is 0.25 µg/mL (≈ 0.519 µM) in data set [24]; no more than 0.001 µg/mL in [25]; 0.016 µg/mL (≈ 0.0332 µM) in data set [26]; 0.03 µg/mL (≈ 0.0623 µM) in data set [27]; 0.002 µg/mL (≈ 0.00415 µM) in data set [28]; 0.03 µg/mL (≈ 0.0623 µM) in [29]. Moreover, it took 0.03 µg/mL (≈ 0.0623 µM) to inhibit growth in [30] (MIC).

As for `CNCC(=O)Oc1c(C)cc(C[n+]2cnn(C[C@](O)(c3ccc(F)cc3F)[C@@H](C)c3nc(-c4ccc(C#N)cc4)cs3)c2)cc1C`, the ED50 in [31] turned out to be 4.7 µmol/kg; in [32], 4.6 µmol/kg; in data set [33], 17 µmol/kg; in [34], 19 µmol/kg.

As to `C=C1CCN([C@H](C)[C@](O)(Cn2cncn2)c2ccc(F)cc2F)CC1` [EFINACONAZOLE], the fraction unbound in [35] was 0.04.

Turning to `C[C@@H](c1nc(-c2ccc(C#N)cc2)cs1)[C@](O)(Cn1cncn1)c1cc(F)ccc1F` [ISAVUCONAZOLE], in [36], the bioavailability (in general, the share of a dose that reaches the circulation, judged against a reference dose that is usually intravenous) stood at 87%.

As for `C[C@@H](c1nc(-c2ccc(C#N)cc2)cs1)[C@](O)(Cn1cncn1)c1ccc(F)cc1F` [RAVUCONAZOLE], in data set [37], half-maximal inhibition (IC50) required 1010 nM. In addition, the solubility (usually how much of the substance goes into solution per volume) in data set [38] came to 600 µg/mL (≈ 1370 µM). In data set [14], this compound came in with an MIC80 of 1 µg/mL (≈ 2.29 µM).

The record behind these values is ChEMBL document CHEMBL5126532, “Synthetic approaches and structural diversity of triazolylbutanols derived from voriconazole in the antifungal drug development” (Eur J Med Chem, 2022).
